From article PMC6925188, “PBRM1 acts as a p53 lysine-acetylation reader to suppress renal tumor growth” (Nature Communications, 2019)

Tested on: HCT116 cells
Assay: RT-qPCR of p53 targets, HCT116 parental and PBRM1 KO cells
Type: cell-based
Parameters: PUMA expression / PIDD expression: reference not given here
Conditions: 50 μM, 24 h
Description: Total RNA was extracted from cells using the RNeasy Plus Mini Kit (74136, Qiagen), and the concentration was measured using the NanoDrop ND-1000 system (Thermo Scientific). Reverse transcription was performed using the First Strand cDNA Synthesis Kit (NP100042, Origen) with 0.5 µg total RNA. Real-time PCR was performed with Maxima SYBR Green qPCR Master Mix (K0253, Thermo Scientific) using the Roche LightCycler 480. The primers used for real-time PCR are listed as follows: q-GAPDH-F: […], q-GAPDH-R: […], q-CDKN1A-F: […], q-CDKN1A-R: […], q-MDM2-F: […], q-MDM2-R: […], q-BAX-F: […], q-BAX-R: […], q-PUMA-F: […], q-PUMA-R: […], q-NOXA-F: […], q-NOXA-R: […], q-GADD45a-F: […], q-GADD45a-R: […], q-APAF1-F: […], q-APAF1-R: […], q-BAI1-F: […], q-BAI1-R: […], q-BCL2A1-F: […], q-BCL2A1-R: g[…], q-BTG2-F: […], q-BTG2-R: […], q-CDC25c-F: […], q-CDC25c-R: […], q-FAS-F: […], q-FAS-R: […], q-PIDD-F: […], q-PIDD-R: […], q-RPRM-F: […], q-RPRM-R: […], q-TNFRSF10B-F: […] and q-TNFRSF10B-R: […]. GAPDH was used as an internal control. Data are shown as mean ± SEM for three independent experiments.
Supplementary Figure 4. PBRM1 is required for full p53 transcriptional activity.
a, b. HCT116 parental and PBRM1 KO cells (combination of eight clones) were treated with
(a). RNA was extracted and reverse transcribed from the indicated cells treated with 50 μM
etoposide. […]
p-values were calculated using the paired two -tailed Student’s t-test. c, d. […]

## COc1cc([C@@H]2c3cc4c(cc3[C@@H](O[C@@H]3O[C@@H]5CO[C@@H](C)O[C@H]5[C@H](O)[C@H]3O)[C@H]3COC(=O)[C@H]23)OCO4)cc(OC)c1O [Etoposide]
HCT116-PBRM1-KOs, assay 1
  APAF1 expression: 3.8371
  BAX expression: 1.7963
  BCL2A1 expression: 19.7667
  BTG2 expression: 11.7942
  CDKN1A expression: 22.8639
  GADD45A expression: 3.9586
  MDM2 expression: 3.9724
  NOXA expression: 3.0525
  PIDD expression: 2.3295
  PUMA expression: 4.8793
  RPRM expression: 2.5491
HCT116-PBRM1-KOs, assay 2
  APAF1 expression: 1.6529
  BAX expression: 2.3457
  BCL2A1 expression: 6.9761
  BTG2 expression: 7.21
  CDKN1A expression: 14.0419
  GADD45A expression: 2.1289
  MDM2 expression: 5.9039
  NOXA expression: 3.6808
  PIDD expression: 1.4093
  PUMA expression: 7.235
  RPRM expression: 2.7797
HCT116-PBRM1-KOs, assay 3
  APAF1 expression: 1.6644
  BAX expression: 2.3134
  BCL2A1 expression: 9.2884
  BTG2 expression: 7.1602
  CDKN1A expression: 10.4953
  GADD45A expression: 3.1241
  MDM2 expression: 5.945
  NOXA expression: 3.6554
  PIDD expression: 1.4897
  PUMA expression: 3.2117
  RPRM expression: 1.3828
HCT116, assay 1
  APAF1 expression: 4.2871
  BAX expression: 2.7702
  BCL2A1 expression: 22.8639
  BTG2 expression: 12.7286
  CDKN1A expression: 28.6408
  GADD45A expression: 4.4076
  MDM2 expression: 4.6589
  NOXA expression: 3.0738
  PIDD expression: 3.0525
  PUMA expression: 4.4076
  RPRM expression: 3.6301
HCT116, assay 2
  APAF1 expression: 2.1372
  BAX expression: 2.6851
  BCL2A1 expression: 13.3173
  BTG2 expression: 8.1398
  CDKN1A expression: 17.6304
  GADD45A expression: 2.5584
  MDM2 expression: 5.7624
  NOXA expression: 3.8683
  PIDD expression: 2.0705
  PUMA expression: 5.3332
  RPRM expression: 2.9362
HCT116, assay 3
  APAF1 expression: 2.021
  BAX expression: 2.7226
  BCL2A1 expression: 11.9548
  BTG2 expression: 8.4269
  CDKN1A expression: 15.6707
  GADD45A expression: 3.0105
  MDM2 expression: 5.4264
  NOXA expression: 4.6765
  PIDD expression: 1.9453
  PUMA expression: 3.1939
  RPRM expression: 2.0097
